Results reported in PubChem BioAssay AID1845204 (Molecular Pharmacology Branch, DTP, NCI, 2023).

Tested on: HSSY-II tumor spheroid viability
Assay: Anticancer human tumor HSSY-II cell line growth inhibition;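 note: spheroids exposed to compounds for seven days before reading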;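 for viability, T/C: percent of DMSO vehicle control viability so 100% = untreated level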
Conditions: spheroids with HUVEC and MSC; for IC50: curve of first compound; for viability, T/C: stronger effect = lower value
Outline: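 Single agents and combinations were tested on spheroids built from tumor cells plus HUVEC and hMSC, at half-log dilutions starting at or near clinical Cmax, else 10 microM; final DMSO 0.25% (v/v).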

[1] = second compound 1 µM, first compound 0.00949 µM
[2] = second compound 1 µM, first compound 0.03 µM
[3] = second compound 1 µM, first compound 0.0949 µM
[4] = second compound 1 µM, first compound 0.3 µM
[5] = second compound 1 µM, first compound 0.949 µM
[6] = second compound 1 µM, first compound 3 µM
[7] = second compound 3.16 µM, first compound 0.00949 µM
[8] = second compound 3.16 µM, first compound 0.03 µM
[9] = second compound 3.16 µM, first compound 0.0949 µM
[10] = second compound 3.16 µM, first compound 0.3 µM
[11] = second compound 3.16 µM, first compound 0.949 µM
[12] = second compound 3.16 µM, first compound 3 µM
[13] = second compound 10 µM, first compound 0.00949 µM
[14] = second compound 10 µM, first compound 0.03 µM
[15] = second compound 10 µM, first compound 0.0949 µM
[16] = second compound 10 µM, first compound 0.3 µM
[17] = second compound 10 µM, first compound 0.949 µM
[18] = second compound 10 µM, first compound 3 µM
[19] = second compound 31.6 µM, first compound 0.00949 µM
[20] = second compound 31.6 µM, first compound 0.03 µM
[21] = second compound 31.6 µM, first compound 0.0949 µM
[22] = second compound 31.6 µM, first compound 0.3 µM
[23] = second compound 31.6 µM, first compound 0.949 µM
[24] = second compound 31.6 µM, first compound 3 µM
[25] = second compound 100 µM, first compound 0.00949 µM
[26] = second compound 100 µM, first compound 0.03 µM
[27] = second compound 100 µM, first compound 0.0949 µM
[28] = second compound 100 µM, first compound 0.3 µM
[29] = second compound 100 µM, first compound 0.949 µM
[30] = second compound 100 µM, first compound 3 µM

Row | SMILES | IC50 (second compound 1 µM) [nM] | IC50 (second compound 3.16 µM) [nM] | IC50 (second compound 10 µM) [nM] | IC50 (second compound 31.6 µM) [nM] | IC50 (second compound 100 µM) [nM] | viability, T/C [3] [%] | viability, T/C [4] [%] | viability, T/C [5] [%] | viability, T/C [6] [%] | viability, T/C [9] [%] | viability, T/C [10] [%] | viability, T/C [11] [%] | viability, T/C [12] [%] | viability, T/C [15] [%] | viability, T/C [16] [%] | viability, T/C [17] [%] | viability, T/C [18] [%] | viability, T/C [21] [%] | viability, T/C [22] [%] | viability, T/C [23] [%] | also measured
1 | CNCc1ccc(-c2cc(-c3nc(-c4ccc(S(=O)(=O)C(C)C)cc4)cnc3N)on2)cc1 + Cn1nnc2c(C(N)=O)ncn2c1=O | 44.1 | 49.9 | 46 | 47 | 42.7 | 9.33 | 4.77 | 1.51 | 0.14 | 10.3 | 4.71 | 1.26 | 0.11 | 8.12 | 5.47 | 1.58 | 0.12 | 10.7 | 4.8 | 2.03 | viability, T/C [1]: 96.8%; viability, T/C [2]: 70.5%; viability, T/C [7]: 98.4%; viability, T/C [8]: 81.4%; viability, T/C [13]: 102%; viability, T/C [14]: 74.7%; viability, T/C [19]: 100%; viability, T/C [20]: 75%; viability, T/C [24]: 0.15%; viability, T/C [25]: 91.3%; viability, T/C [26]: 69.4%; viability, T/C [27]: 5.96%; viability, T/C [28]: 4.82%; viability, T/C [29]: 1.42%; viability, T/C [30]: 0.2%
2 | Cc1sc2c(c1C)C(c1ccc(Cl)cc1)=NC(CC(=O)Nc1ccc(O)cc1)c1nnc(C)n1-2 (stereo not given) + Cn1nnc2c(C(N)=O)ncn2c1=O | 164 | 178 | 158 | 194 | 169 | 64.7 | 34.3 | 19.3 | 12.8 | 65.9 | 35.9 | 21.6 | 12 | 62.3 | 32.6 | 20.1 | 11.2 | 69.3 | 37.3 | 18.7 | viability, T/C [1]: 98.5%; viability, T/C [2]: 85.1%; viability, T/C [7]: 101%; viability, T/C [8]: 90.6%; viability, T/C [13]: 101%; viability, T/C [14]: 92.9%; viability, T/C [19]: 105%; viability, T/C [20]: 98%; viability, T/C [24]: 8.46%; viability, T/C [25]: 98.1%; viability, T/C [26]: 89.5%; viability, T/C [27]: 68.7%; viability, T/C [28]: 31.2%; viability, T/C [29]: 13.2%; viability, T/C [30]: 5.25%
3 | Cn1ncnc1[C@H]1c2n[nH]c(=O)c3cc(F)cc(c23)N[C@@H]1c1ccc(F)cc1 + Cn1nnc2c(C(N)=O)ncn2c1=O | 88.1 | 41.7 | 21.1 | < 9.49 | < 9.49 | 52.6 | 20.8 | 10.8 | 6.39 | 45.6 | 15.5 | 9.89 | 8.35 | 15.4 | 10.5 | 8.29 | 6.47 | 9.75 | 8.55 | 7.6 | viability, T/C [1]: 86.8%; viability, T/C [2]: 68.6%; viability, T/C [7]: 83%; viability, T/C [8]: 50.1%; viability, T/C [13]: 70.3%; viability, T/C [14]: 41.2%; viability, T/C [19]: 20.1%; viability, T/C [20]: 10.9%; viability, T/C [24]: 4.67%; viability, T/C [25]: 8.89%; viability, T/C [26]: 7.52%; viability, T/C [27]: 8.61%; viability, T/C [28]: 7.59%; viability, T/C [29]: 6.58%; viability, T/C [30]: 5.25%
4 | O=C(c1cc(Cc2n[nH]c(=O)c3ccccc23)ccc1F)N1CCN(C(=O)C2CC2)CC1 + Cn1nnc2c(C(N)=O)ncn2c1=O | 6100 | 3280 | 2480 | 751 | < 94.9 | 98 | 93.6 | 84.2 | 63.6 | 94.9 | 92.5 | 81.9 | 54.8 | 99.6 | 93.3 | 81.3 | 46.5 | 95.5 | 78.5 | 44 | viability, T/C (second compound 1 µM, first compound 9.49 µM): 23.9%; viability, T/C (second compound 1 µM, first compound 30 µM): 59.1%; viability, T/C (second compound 3.16 µM, first compound 9.49 µM): 20.1%; viability, T/C (second compound 3.16 µM, first compound 30 µM): 43.3%; viability, T/C (second compound 10 µM, first compound 9.49 µM): 12%; viability, T/C (second compound 10 µM, first compound 30 µM): 56.4%; viability, T/C [24]: 14%; viability, T/C (second compound 31.6 µM, first compound 9.49 µM): 11.3%; viability, T/C (second compound 31.6 µM, first compound 30 µM): 9.62%; viability, T/C [27]: 43.4%; viability, T/C [28]: 25.2%; viability, T/C [29]: 10.7%; viability, T/C [30]: 10.1%; viability, T/C (second compound 100 µM, first compound 9.49 µM): 8.27%; viability, T/C (second compound 100 µM, first compound 30 µM): 9.08%
